Laboratory results published in patent publication US5677331A, “Antimalarial compositions” (priority 1990, dated 1997).

How the values were obtained:
P. Berghei K173 N-strain = assay: blood schizontocidal action, 4-day test according to Peters; assay type: in vivo, P. Berghei in mice; conditions: component alone, oral, mice, mean of three experiments
Procedure: The synergism between the components benflumetol and artemether is determined according to the method of Peters: Am. Trop. Med. Parasitol Vol. 62, pg. 488-492 (1968).
Blood schizintocidal action of artemether (A) and benflumetol (B) admimistered orally in varying proportions to mice infected with P. Berghei K173 N-strain in "4-day test" according to Peters (Mean values of three experiments)

protozoa = assay: rate of killing protozoa in vivo in mice; conditions: 20× ED90 intragastrically
Procedure: The rate of killing protozoa was determined in-vivo. When the protozoa concentration in the blood of mice increased to high density, a multiple dose equivalent, i.e. 20× ED90 was given intragastrically. The rate of decrease of protozoae in blood was observed uninterruptedly after administration.

[1] = test system: pernicious malaria protozoae; assay: clinical therapeutic effect of individual components compared to combination; assay type: in vivo, patients (human); conditions: oral, 3 days and 4 doses; for time for disappearance of protozoae: average; for rate of decrease in protozoae at 24 hours: 20 patients per group
From the text: Determination of therapeutic effect of individual components as compared to synergistic combination: Two groups of patients were selected for oral administration and the 3 days and 4 doses treatment scheme. There were 20 patients with pernicious malaria in each group. The therapeutic effect of the combination and artemether and benflumetol singly were compared separately. The doses of both drugs in individual administration were about the same as in the complex prescription. The parameters determined were: 1) the rate for decrease of protozoa at 24 h post administrationem; 2) average time for disappearance of protozoae; 3) average time for fever subsidence; and 4) cure rate at the 28th day.

[2] = toxicity and tolerability of benflumetol (general statement)
From the text: The dose of the active component benflumetol (I) as contained in the pharmaceutical composition may vary within wide limits and depends on the condition of the patient and the time period elapsed after the outbreak of the disease.

[3] = test system: chloroquine-resistant strains of Plasmodium falciparum; conditions: in vivo; cited from earlier work

| Compound | Effective dose of first component ED50 (P. Berghei K173 N-strain) [mg/kg/day] | Effective dose of first component ED90 (P. Berghei K173 N-strain) [mg/kg/day] | timespan required for 90% decrease of the protozoae (protozoa) [h] | time for disappearance of protozoae [1] [h] | 28-day cure rate [1] [%] | average time for fever subsidence [1] [h] | rate of decrease in protozoae at 24 hours [1] [%] | tolerability [2] | toxicity [2] | killing of protozoae (protozoa; before their number increased again) | activity against chloroquine-resistant strains of Plasmodium falciparum in man [3] |
| --- | --- | --- | --- | --- | --- | --- | --- | --- | --- | --- | --- |
| CCCCN(CCCC)CC(O)c1cc(Cl)cc2c1-c1ccc(Cl)cc1C2=Cc1ccc(Cl)cc1 (centres unmarked) [benflumetol] | 1.30 | 2.70 | 64.3 | 68.4 | 65 | 40 | 74.5 | high tolerability | low toxicity | – | – |
| CO[C@H]1O[C@@H]2O[C@@]3(C)CC[C@H]4[C@H](C)CC[C@@H]([C@H]1C)[C@@]24OO3 [artemether] | 2.00 | 5.30 | – | 38.7 | 45 | 19.7 | 95.1 | – | – | could not kill protozoae by more than 90% before their number increased again | – |
| C[C@@H]1CC[C@H]2[C@@H](C)C(=O)O[C@@H]3O[C@@]4(C)CC[C@@H]1[C@]32OO4 [Artemisinine] | – | – | – | – | – | – | – | – | – | – | active against chloroquine-resistant strains of Plasmodium falciparum in man |
